Molecules are shown by their SMILES.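 1) Cells in 96-well plates. 2) Compound, 48 h, 5 concentrations. 3) Linear interpolation between surrounding doses. 4) Unreached endpoint = highest concentration. The concentration for 50% growth inhibition is given as GI50.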 Activity calls are given as the source filed them. Cut-off read from the data, not from the text of the source: active = GI50 up to about 1.1 µM and inactive = higher.

Test systems include HCT-15; SNB-75; NCI/ADR-RES; HCT-116; IGROV-1; HT-29; COLO 205; MDA-N; NCI-H522; UACC-62; MDA-MB-231; SR; SF-539; OVCAR-5; NCI-H226; LXFL 529; TK-10; HOP-62; MDA-MB-435; NCI-H460.
Common to all, as to experiment: NCI tumour cell line growth inhibition, 48 h

In the case of `CN(C)C(=S)SN(C)C(=O)Nc1ccccc1`, the GI50 is 22.6 µM in the experiment with HCT-15; 28.6 µM (inactive) in the experiment on SNB-75; 3.2 µM (inactive) with NCI/ADR-RES; 8.91 µM (inactive) in the experiment with HCT-116; 26 µM (inactive) in the experiment with IGROV-1; 1.69 µM (inactive) with HT-29. The GI50 with COLO 205 is 4.48 µM (inactive); in the experiment with MDA-N, 9.53 µM (inactive); in the experiment on NCI-H522, 0.128 µM (active); in the experiment on UACC-62, 3.62 µM (inactive); with MDA-MB-231, 38.9 µM (inactive); with SR it was 5.43 µM (inactive). Further, the GI50 in the experiment with SF-539 is 34.1 µM (inactive); with OVCAR-5 it was 12.2 µM (inactive); in the experiment on NCI-H226 it was 45.8 µM (inactive); in the experiment on LXFL 529 it was 0.391 µM (active); in the experiment with TK-10, > 96.2 µM (inactive); in the experiment on HOP-62 it was > 65.9 µM (inactive). Also, the GI50 in the experiment on MDA-MB-435 was 19.7 µM (inactive); with NCI-H460, 1.82 µM (inactive).
`COc1cc2c(cc1C)[n+]([O-])c(C)c(C(=O)C/C(=N/NC(=O)C[N+](C)(C)C)C(=O)Nc1cccc(Cl)c1C)[n+]2[O-]`: the GI50 with HCT-15 was more than 100 µM; with SNB-75 it was > 100 µM (inactive); in the experiment on HCT-116, > 100 µM (inactive); in the experiment on IGROV-1, > 100 µM (inactive); in the experiment on HT-29 it was > 100 µM (inactive); in the experiment with COLO 205 it was > 100 µM (inactive). For the same compound, the GI50 with NCI-H522, with UACC-62, in the experiment on SR, in the experiment with SF-539, with OVCAR-5 and in the experiment on NCI-H226 was > 100 µM (inactive) each time. The GI50 in the experiment on LXFL 529, in the experiment on TK-10, in the experiment on HOP-62 and in the experiment on NCI-H460 was > 100 µM (inactive) in each case.
Consider `C(=C\c1c2oc(-c3ccccc3)cc(-c3ccccc3)c-2c2ccccc12)/C=C1\c2ccccc2-c2c(-c3ccccc3)cc(-c3ccccc3)[o+]c21.[O-][Cl+3]([O-])([O-])[O-]`, for which the GI50 in the experiment with HCT-15 was more than 100 µM; with SNB-75 it was 45.9 µM (inactive); with HCT-116, > 100 µM (inactive); in the experiment with IGROV-1, > 100 µM (inactive); in the experiment on HT-29, > 100 µM (inactive); in the experiment on COLO 205, > 100 µM (inactive). Also, the GI50 with NCI-H522, with UACC-62, with SR, with SF-539, in the experiment on OVCAR-5 and with NCI-H226 was > 100 µM (inactive) in each case. The GI50 in the experiment on LXFL 529, in the experiment on TK-10, in the experiment on HOP-62 and with NCI-H460 was > 100 µM (inactive) each time.
On to `CC[C@@]1(O)C(=O)OCc2c1cc1n(c2=O)Cc2cc3ccccc3nc2-1` [CAMPTOTHECIN], for which the GI50 with HCT-15 is 0.152 µM; in the experiment with SNB-75, 0.0272 µM (active); in the experiment on NCI/ADR-RES it was 0.012 µM (active); in the experiment on HCT-116, 0.023 µM (active); in the experiment with IGROV-1, 0.184 µM (active); in the experiment with HT-29, 0.0449 µM (active). In addition, the GI50 in the experiment on COLO 205 is 0.286 µM (active); in the experiment with MDA-N it was 0.145 µM (active); with NCI-H522, 0.0223 µM (active); with UACC-62, < 0.0106 µM (active); in the experiment with MDA-MB-231, 0.938 µM (active); in the experiment on SR, < 0.01 µM (active). In addition, the GI50 in the experiment on SF-539 is 0.0145 µM (active); with OVCAR-5, 0.0809 µM (active); in the experiment with NCI-H226, 0.0179 µM (active); in the experiment with LXFL 529, 0.372 µM (active); in the experiment on TK-10 it was 1.32 µM (inactive); in the experiment on HOP-62, 0.0116 µM (active). Further, the figures for the GI50 with MDA-MB-435 and in the experiment with NCI-H460 were 0.0658 µM (active) and 0.0158 µM (active), respectively.
Regarding `O=C(Cc1ccc(F)cc1)NC1=C(Cl)C(=O)c2ccccc2C1=O`, the GI50 in the experiment with HCT-15 is 1.31 µM; with SNB-75 it was 2.5 µM (inactive); with HCT-116, 2.36 µM (inactive); in the experiment on IGROV-1, 2.61 µM (inactive); in the experiment with HT-29, 17.3 µM (inactive); with COLO 205, 3.66 µM (inactive). For the same compound, the GI50 is 0.297 µM (active) in the experiment on NCI-H522; 2.53 µM (inactive) with UACC-62; 0.481 µM (active) in the experiment with SR; 2.24 µM (inactive) with SF-539; 3.85 µM (inactive) in the experiment with OVCAR-5; 3.4 µM (inactive) with NCI-H226. Besides, the GI50 in the experiment with LXFL 529 was 2.8 µM (inactive); with TK-10, 6.9 µM (inactive); in the experiment on HOP-62, 10 µM (inactive); in the experiment on NCI-H460, 3.47 µM (inactive).
As for `C[N+](C)(C)CC(=O)N/N=C(/C(=O)Nc1ccc(Br)cc1)C1C(=O)NC(=O)NC1=O`, the GI50 with HCT-15 was more than 100 µM; in the experiment on SNB-75, > 100 µM (inactive); in the experiment on HCT-116 it was > 100 µM (inactive); in the experiment on IGROV-1, > 100 µM (inactive); in the experiment with HT-29, > 100 µM (inactive); in the experiment on COLO 205, > 100 µM (inactive). In addition, the GI50 in the experiment on NCI-H522, in the experiment with UACC-62, in the experiment on SR, in the experiment with SF-539, in the experiment with OVCAR-5 and in the experiment with NCI-H226 was > 100 µM (inactive) throughout. Moreover, the GI50 in the experiment with LXFL 529, in the experiment on TK-10, with HOP-62 and in the experiment with NCI-H460 was > 100 µM (inactive) each time.
Regarding `O=C1/C(=C/c2ccc(Cl)cc2)CCC1CNc1ccc(Cl)cc1` (centres undefined), the GI50 with HCT-15 is 2.37 µM; with SNB-75, 32.3 µM (inactive); in the experiment on NCI/ADR-RES, 26.2 µM (inactive); in the experiment with HCT-116, 4.73 µM (inactive); with IGROV-1 it was 6.12 µM (inactive); in the experiment with HT-29, 3.67 µM (inactive). Moreover, the GI50 with COLO 205 was 2.46 µM (inactive); in the experiment on MDA-N it was 11.8 µM (inactive); in the experiment on NCI-H522, 1.8 µM (inactive); in the experiment on UACC-62 it was 0.41 µM (active); with MDA-MB-231 it was 6.7 µM (inactive); in the experiment on SR, 2.23 µM (inactive). Further, the GI50 with SF-539 is 7.76 µM (inactive); with OVCAR-5, 25.2 µM (inactive); with NCI-H226, 28.4 µM (inactive); in the experiment on LXFL 529, 0.711 µM (active); with TK-10 it was 5.11 µM (inactive); in the experiment with HOP-62 it was 19.9 µM (inactive). Also, the GI50 is 15.1 µM (inactive) with MDA-MB-435 and 7.96 µM (inactive) with NCI-H460.

The values above are taken from ChEMBL document CHEMBL1201862, “PubChem BioAssay data set” (2004).
